From ChEMBL document CHEMBL1147427, “2-hydroxy-4-isopropylbenzaldehyde, a potent partial tyrosinase inhibitor” (Bioorg Med Chem Lett, 2004)

Test system: Tyrosinase (Agaricus bisporus)
Experiment: Inhibitory activity at a concentration of 0.5 nm, was evaluated against the oxidation of L-3,4-dihydroxyphenylalanine (L-DOPA) catalyzed by mushroom tyrosinase; No inhibitory activity

- IC50: No inhibition
SMILES: COc1cc(C(C)C)ccc1C=O
